Experiment: molar heat capacity at constant pressure; xn = mol fraction of the nth substance listed
Details: Liquid, x2 = 0.568

CCCO [propan-1-ol] + O
Details | molar heat capacity at constant pressure [J/K/mol]
262.42 K | 106.61
264.63 K | 107.35
266.82 K | 108.31
269.02 K | 109.17
271.19 K | 109.88
273.35 K | 110.58
275.5 K | 111.1
277.64 K | 111.89
279.76 K | 112.63
281.87 K | 113.37
283.94 K | 114.17
286 K | 114.78
288.06 K | 115.38
290.08 K | 116.09
292.07 K | 116.6
294.06 K | 117.18
296.02 K | 117.95
298.02 K | 118.53
300.05 K | 119.17
302.07 K | 119.94
304.12 K | 120.61
306.15 K | 121.22
308.18 K | 121.92
310.21 K | 122.56
312.24 K | 123
314.26 K | 123.59
316.27 K | 124.29
318.28 K | 124.81

— the NIST ThermoML archive (doi:10.1021/je0342668)
